Patent US4971963A, “Cephem compounds, and use” (Takeda Chemical Industries, Ltd., priority 1988, dated 1990)
In brackets after ≈: the same amount, converted by molar mass. Where two headings read alike, the source gives them in different places.

Assays:
Assay in all cases: Minimal inhibitory concentration, agar dilution method
Assay type in all cases: cell-based
E. coli O-111 = conditions: Escherichia coli, O111, Trypticase soy agar, about 10^8 CFU/ml, 37° C., 18 hours
Experimental: (§1) The Minimal Inhibitory Concentrations of the tested compounds were determined according to the agar dilution method. Namely, 1.0 ml each of aqueous solution of the test compounds diluted by serial dilutions was poured into test petri dishes, subsequently 9.0 ml each of Trypticase soy agar was poured into the dishes and mixed.
(§2) On each of the mixed agar plates, one loopful of bacterial suspension (about 10^8 CFU/ml) of test microorganism was streaked.
(§3) After the incubation at 37° C. for 18 hours, the lowest concentration of the tested compounds in the medium which caused apparently complete inhibition of growth of the test microorganism was taken to be minimal inhibitory concentration.

E. cloacae IFO12937 = conditions: Enterobacter cloacae, Trypticase soy agar, about 10^8 CFU/ml, 37° C., 18 hours
Experimental: as §1, §2, §3

K. pneumoniae DT = conditions: Klebsiella pneumoniae, Trypticase soy agar, about 10^8 CFU/ml, 37° C., 18 hours
Experimental: as §1, §2, §3

S. aureus FDA 209P = conditions: Staphylococcus aureus, FDA209P
Experimental: as §1, §2, §3

C. freundii IFO12681 = conditions: Citrobacter freundii, Trypticase soy agar, about 10^8 CFU/ml, 37° C., 18 hours
Experimental: as §1, §2, §3

P. aeruginosa IFO3455 = conditions: Pseudomonas aeruginosa, Trypticase soy agar, about 10^8 CFU/ml, 37° C., 18 hours
Experimental: as §1, §2, §3

S. aureus N-241 = conditions: Staphylococcus aureus, N241, Trypticase soy agar, about 10^8 CFU/ml, 37° C., 18 hours
Experimental: as §1, §2, §3

E. coli T 7 = conditions: Escherichia coli, T7, Trypticase soy agar, about 10^8 CFU/ml, 37° C., 18 hours
Experimental: as §1, §2, §3

M. morganii IFO3168 = conditions: Morganella morganii, Trypticase soy agar, about 10^8 CFU/ml, 37° C., 18 hours
Experimental: as §1, §2, §3

S. aureus J-108 = conditions: Staphylococcus aureus, J108, Trypticase soy agar, about 10^8 CFU/ml, 37° C., 18 hours
Experimental: as §1, §2, §3

S. aureus 1840 = tested on: S. aureus 1840
Experimental: as §1, §2, §3

S. marcescens IFO12648 = conditions: Serratia marcescens, Trypticase soy agar, about 10^8 CFU/ml, 37° C., 18 hours
Experimental: as §1, §2, §3

P. mirabilis IFO3849 = conditions: Proteus mirabilis, Trypticase soy agar, about 10^8 CFU/ml, 37° C., 18 hours
Experimental: as §1, §2, §3

E. coli NIHJ JC-2 = conditions: Escherichia coli, NIHJJC2, Trypticase soy agar, about 10^8 CFU/ml, 37° C., 18 hours
Experimental: as §1, §2, §3

P. vulgaris IFO3988 = conditions: Proteus vulgaris, Trypticase soy agar, about 10^8 CFU/ml, 37° C., 18 hours
Experimental: as §1, §2, §3

S. aureus 308 A-1 = conditions: Staphylococcus aureus, 308A1, Trypticase soy agar, about 10^8 CFU/ml, 37° C., 18 hours
Experimental: as §1, §2, §3

[1] = S. aureus FDA 209P, Trypticase soy agar, about 10^8 CFU/ml, 37° C., 18 hours, read-out: MIC
[2] = Staphylococcus aureus, S. aureus 1840, Trypticase soy agar, about 10^8 CFU/ml, 37° C., 18 hours, read-out: MIC

| SMILES | MIC (E. coli O-111) [µg/mL] | MIC (E. cloacae IFO12937) [µg/mL] | MIC (K. pneumoniae DT) [µg/mL] | MIC (S. aureus FDA 209P; [1]) [µg/mL] | MIC (C. freundii IFO12681) [µg/mL] | MIC (P. aeruginosa IFO3455) [µg/mL] | MIC (S. aureus N-241) [µg/mL] | MIC (E. coli T 7) [µg/mL] | MIC (M. morganii IFO3168) [µg/mL] | MIC (S. aureus J-108) [µg/mL] | MIC (S. aureus 1840; [2]) [µg/mL] | MIC (S. marcescens IFO12648) [µg/mL] | MIC (P. mirabilis IFO3849) [µg/mL] | MIC (E. coli NIHJ JC-2) [µg/mL] | MIC (P. vulgaris IFO3988) [µg/mL] | MIC (S. aureus 308 A-1) [µg/mL] | MIC (S. aureus 1840; Staphylococcus aureus, 1840, 18 h) [µg/mL] | MIC (S. aureus FDA 209P; 18 h) [µg/mL] |
| --- | --- | --- | --- | --- | --- | --- | --- | --- | --- | --- | --- | --- | --- | --- | --- | --- | --- | --- |
| N=C(N)CSc1nnc(SCC2=C(C(=O)O)N3C(=O)[C@@H](NC(=O)/C(=N\O)c4csc(N)n4)[C@H]3SC2)s1 [Example 39, 3-[(2-Amidinomethylthio-1,3,4-thiadiazol-5-yl)thiomethyl]-7β-[2-(2-aminothiazol-4-yl)-(Z)-2-hydroxyiminoacetamido]-3-cephem-4-carboxylic acid] | ≤ 0.1 | 3.13 (≈ 5.33 µM) | ≤ 0.1 | 0.2 (≈ 0.34 µM) | 0.39 (≈ 0.664 µM) | 12.5 (≈ 21.3 µM) | 1.56 (≈ 2.65 µM) | 1.56 (≈ 2.65 µM) | 0.39 (≈ 0.664 µM) | 1.56 (≈ 2.65 µM) | 0.39 (≈ 0.664 µM) | 0.78 (≈ 1.33 µM) | 1.56 (≈ 2.65 µM) | 0.39 (≈ 0.664 µM) | 0.78 (≈ 1.33 µM) | 0.2 (≈ 0.34 µM) |  |  |
| CO/N=C(\C(=O)N[C@@H]1C(=O)N2C(C(=O)O)=C(CSc3snc(SCC(=N)N)c3C#N)CS[C@H]12)c1csc(N)n1 [Example 15, 3-[(3-Amidinomethylthio-4-cyanoisothiazol-5-yl)thiomethyl]-7β-[2-(2-aminothiazol-4-yl)-(Z)-2-methoxyiminoacetamido]-3-cephem-4-carboxylic acid] | ≤ 0.1 | 0.78 (≈ 1.25 µM) | 0.2 (≈ 0.32 µM) | 0.2 (≈ 0.32 µM) | 0.2 (≈ 0.32 µM) | 6.25 (≈ 9.99 µM) | 6.25 (≈ 9.99 µM) | 0.39 (≈ 0.623 µM) | 0.2 (≈ 0.32 µM) | 6.25 (≈ 9.99 µM) |  | 0.39 (≈ 0.623 µM) | 0.78 (≈ 1.25 µM) | 0.39 (≈ 0.623 µM) | 0.2 (≈ 0.32 µM) | 0.2 (≈ 0.32 µM) | 0.39 (≈ 0.623 µM) |  |
| CO/N=C(\C(=O)N[C@@H]1C(=O)N2C(C(=O)O)=C(CSc3nnnn3CCCNC(=N)N)CS[C@H]12)c1csc(N)n1 [Example 8, 7β-[2-(2-Aminothiazol-4-yl)-(Z)-2-methoxyiminoacetamido]-3-[[1-(3-guanidinopropyl)-1H-tetrazol-5-yl]thiomethyl]-3-cephem-4-carboxylic acid] | ≤ 0.1 | 0.39 (≈ 0.654 µM) | ≤ 0.1 |  | ≤ 0.1 | 6.25 (≈ 10.5 µM) | 12.5 (≈ 20.9 µM) | 0.39 (≈ 0.654 µM) | ≤ 0.1 | 6.25 (≈ 10.5 µM) | 0.78 (≈ 1.31 µM) | ≤ 0.1 | 0.39 (≈ 0.654 µM) | ≤ 0.1 | ≤ 0.1 | 0.78 (≈ 1.31 µM) |  | 0.78 (≈ 1.31 µM) |
| N=C(N)CSCCn1nnnc1SCC1=C(C(=O)O)N2C(=O)[C@@H](NC(=O)/C(=N\O)c3csc(N)n3)[C@H]2SC1 [Example 44] | ≤ 0.1 | 3.13 (≈ 5.22 µM) | 0.2 (≈ 0.333 µM) | ≤ 0.1 | 0.39 (≈ 0.65 µM) | 12.5 (≈ 20.8 µM) | 3.13 (≈ 5.22 µM) | 0.78 (≈ 1.3 µM) | 0.39 (≈ 0.65 µM) | 3.13 (≈ 5.22 µM) | 0.2 (≈ 0.333 µM) | 0.39 (≈ 0.65 µM) | 3.13 (≈ 5.22 µM) | 0.2 (≈ 0.333 µM) | 0.39 (≈ 0.65 µM) | ≤ 0.1 |  |  |
| N#Cc1c(SCC(=N)N)nsc1SCC1=C(C(=O)O)N2C(=O)[C@@H](NC(=O)/C(=N\O)c3csc(N)n3)[C@H]2SC1 [Example 42, 3-[(3-Amidinomethylthio-4-cyanoisothiazol-5-yl)thiomethyl]-7β-[2-(2-aminothiazol-4-yl)-(Z)-2-hydroxyiminoacetamido]-3-cephem-4-carboxylic acid] | ≤ 0.1 | 3.13 (≈ 5.12 µM) | 0.78 (≈ 1.28 µM) | ≤ 0.1 | 0.78 (≈ 1.28 µM) | 12.5 (≈ 20.4 µM) | 0.78 (≈ 1.28 µM) | 1.56 (≈ 2.55 µM) | 0.78 (≈ 1.28 µM) | 0.78 (≈ 1.28 µM) | 0.2 (≈ 0.327 µM) | 1.56 (≈ 2.55 µM) | 3.13 (≈ 5.12 µM) | 0.78 (≈ 1.28 µM) | 0.78 (≈ 1.28 µM) | ≤ 0.1 |  |  |
